# Experimental data from PubChem BioAssay (NCI).
#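 96-well plates; 48 h exposure; 5 concentrations. Endpoints by linear interpolation between flanking doses. Not reached: highest tested concentration assigned. Abbreviation: GI50, concentration required for 50% inhibition of growth. TGI: concentration producing complete growth inhibition.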
# Assays:
# Experiment in all cases: inhibition of tumour cell growth, NCI panel, 48 h
# [1] = test system: NCI-H460 lung
# [2] = test system: SR leukemia
# [3] = test system: SF-539 CNS
# [4] = test system: K-562 leukemia
# [5] = test system: COLO 205 colon
# [6] = test system: A498 renal
# [7] = test system: SNB-75 CNS
# [8] = test system: MDA-MB-435
# [9] = test system: OVCAR-4 ovarian
# [10] = test system: MCF7 breast
SMILES,GI50 [1] [µM],TGI [1] [µM],GI50 [2] [µM],TGI [2] [µM],GI50 [3] [µM],TGI [3] [µM],GI50 [4] [µM],TGI [4] [µM],GI50 [5] [µM],TGI [5] [µM],GI50 [6] [µM],TGI [6] [µM],GI50 [7] [µM],TGI [7] [µM],GI50 [8] [µM],TGI [8] [µM],GI50 [9] [µM],TGI [9] [µM],GI50 [10] [µM],TGI [10] [µM]
COc1ccccc1[N-]C(C1=C([O-])c2ccccc2C1=O)c1ccccc1.COc1ccccc1[N-]C(C1=C([O-])c2ccccc2C1=O)c1ccccc1.[Cu+2] (stereo not given),6.76,> 100,8.58,> 100,3.82,15.1,3.18,> 100,3.95,30,14.7,53.7,11.9,37.1,,,,,,
COc1cc2cc(Oc3ccc(NC(=O)Nc4ccc(Cl)c(C(F)(F)F)c4)cc3)c(C)nc2cc1OCCN1CCCCC1,1.85,3.47,0.486,2.37,1.58,2.94,0.547,2.33,1.65,3.33,1.24,2.58,1.13,2.33,1.56,2.92,1.46,3.29,,
O=C(NCCCCCCNC(=O)c1cccc2ccccc12)c1cccc2ccccc12,,> 100,,> 100,,35.4,,> 100,,3.4,,65.6,,9.55,,,,58.6,,
CN(C)c1ccc2c(NCCCCCCNc3ccnc4cc(N(C)C)ccc34)ccnc2c1,,57,,> 100,,45.2,,> 100,,,,95.8,,,,,,28.2,,
CCCC(O)[C@@H](O)c1ccc2c(c1O)C(=O)c1c(OC)cccc1C2=O (stereo not given in full),,> 100,,66.6,,58.8,,> 100,,44.8,,> 100,,> 100,,,,> 100,,
COc1ccc2c(c1)CCC1C2CCC2(C)C1CCC2(O)CNC(=O)CCCCC1CCSS1 (stereo not given),3.25,> 100,,,18.3,90.8,2.63,> 100,6.14,> 100,73.4,> 100,,,7.83,> 100,6.92,45.9,10.3,40.8
CC1(C)CCC2(C(=O)OC3OC(CO)C(O)C(O)C3O)CC[C@]3(C)C(=CCC4C5(C)CC[C@H](OC6OC(C(=O)O)C(O)C(O)C6O)C(C)(C)C5CCC43C)C2C1 (stereo not given in full),2.51,> 50,,,,,1.58,> 50,1.36,3.55,,,,,2.52,> 50,,,1.6,> 50
CCC[CH2][Sn]([CH2]CCC)([O]C(C)=O)[O]C(C)=O,2.6,7.55,0.571,4.72,1.53,3.19,0.299,2.59,1.81,4.29,,,1.02,2.63,,,1.79,3.5,,
CC1(Sc2ccccc2)CN(Cc2ccccc2)C1=O (stereo not given),,> 100,,,,> 100,,> 100,,> 100,,> 100,,> 100,,,,> 100,,
COC(=O)CCC(=O)N1Cc2cc(C)ccc2N(C(=O)CCC(=O)OC)Cc2cc(C)ccc21,,> 100,,> 100,,> 100,,> 100,,> 100,,,,,,,,> 100,,
Cc1ccc(C(=O)Nc2ccc(S(=O)(=O)O)c3cc(S(=O)(=O)O)cc(S(=O)(=O)O)c23)cc1NC(=O)c1cccc(N)c1,,> 100,,> 100,,> 100,,> 100,,> 100,,> 100,,> 100,,,,> 100,,> 100
CCOC(=O)C=C1CCN(C(=O)c2ccccc2)CC1,,> 100,,> 100,,> 100,,> 100,,> 100,,> 100,,> 100,,,,> 100,,
CC1=C2CCCC2C/C(=N/Nc2ccc([N+](=O)[O-])cc2[N+](=O)[O-])CC1 (stereo not given),,> 100,,> 100,,> 100,,> 100,,> 100,,> 100,,> 100,,,,> 100,,
CC1CC2C(=O)NC(=O)C2c2[nH]c3ccccc3c21 (stereo not given),,> 100,,> 100,,> 100,,> 100,,> 100,,,,> 100,,,,> 100,,
CSc1nnc(CCSc2ccnc3c(C(F)(F)F)cccc23)o1,> 100,> 100,,,60.6,> 100,47.3,> 100,> 100,> 100,,,19.6,> 100,> 100,> 100,40.7,> 100,> 100,> 100
